Source: paper PMC6026274, “A GLP-1:CCK fusion peptide harnesses the synergistic effects on metabolism of CCK-1 and GLP-1 receptor agonism in mice” (Appetite, 2018)
Starred links: 1 amine or outer side, 2 acyl side, 3 side chain; linkers in the order of their positions; H or OH if unused. Non-standard residues stand in square brackets, D forms with d. Residues, ends and D or L forms follow the SMILES beside them. Groups on a side chain read outwards from the residue. *: point of attachment. NMeF = CN[C@@H](Cc1ccccc1)C(=O)O; NH(2-Me-phenyl) = Cc1ccccc1N*; Nle = CCCC[C@H](N)C(=O)O; X1 = O=C(Cc1ccc(O)cc1)*; CO = O=C([*:1])[*:2]

Tests used:
Sprague Dawley rats = test: Kaolin intake in lean rats; format: in vivo; details: overnight fasted lean rats, single i.p. injection; C2816 7 or 50 nmol/kg, cisplatin 10 mg/kg; vs vehicle; n = 9/group
Protocol: After the acclimation period, rats were given chow and kaolin diet (K50001, Research Diets, Billerica, MA) in adjacent separate compartments in a divided food hopper. Rats were randomized to treatment groups based on 24 h chow intake, 24 h kaolin intake and body weight (n = 9/group). […] Cisplatin (10 mg/kg; Sigma-Aldrich, St Louis, MO) was administered i.p. as a positive control. Chow and kaolin intake was recorded at 4 and 24 h. A final body weight was also recorded at 24 h.

[1] = tested on: diet-induced obese (DIO) C57BL6 mice; test: Pharmacology study in DIO mice; format: in vivo; details: AC3174 and AC170222 7 nmol/kg each, C2816 and (pGlu-Gln)-CCK-8/exendin-4 50 nmol/kg
Protocol: Obese male 10-week old C57BL6 mice (Jackson Laboratory) on high-fat diet (D12492, 60% kcal/fat, Research Diets) were single housed upon arrival and allowed to acclimate for 2 weeks. On day −3 mice were weighed and randomized to treatment groups (n = 8/group) based on body weight, with each mouse dosed once daily with two compounds or vehicle administered separately. […] Drug was administered once daily for 10 days intraperitoneally (5 mL/kg) 2 h prior to lights off.

[2] = terminal plasma, day 10, once daily i.p., mean ± SEM, n = 8, SEM

SMILES | Food (chow) intake at 4 h and 24 h post-dose (Sprague Dawley rats) | Body weight change ([1]; DIO mice, once daily i.p. for 10 days, n = 8/group) | Glucose ([1]; terminal non-fasted blood glucose, day 10, once daily i.p., mean ± SEM, n = 8, SEM) | ALT [1, 2] | AST [1, 2] | Amylase [1, 2] | Cholesterol [1, 2] | Insulin [1, 2] | Lipase [1, 2] | Triglycerides [1, 2]
N.N.[Cl][Pt][Cl] [cisplatin, Cisplatin] | similarly reduced food intake as high dose C2816 | – | – | – | – | – | – | – | – | –
CCCC[C@H](NC(=O)Cc1ccc(O)cc1)C(=O)NCC(=O)N[C@@H](Cc1c[nH]c2ccccc12)C(=O)N[C@@H](CCCCNC(=O)Nc1ccccc1C)C(=O)N[C@@H](CC(=O)O)C(=O)N(C)[C@@H](Cc1ccccc1)C(N)=O [AC170222] (X1-[Nle]GWK([CO-NH(2-Me-phenyl)])D[NMeF]-NH2) | – | did not affect | 280 ± 11 mg/dL | 86 ± 32 U/L | 95 ± 27 U/L | 2759 ± 75 U/L | 192 ± 28 mg/dL | 11.3 ± 4.1 ng/mL | 77 ± 49 U/L | 114 ± 6 mg/dL
